The term IC50 denotes the concentration at which inhibition is half-maximal. Read a low IC50 as greater potency in that assay.

The assay deals with p-p70 S6 Kinase (Thr389) in MCF-7 cells. As to the kind of experiment: AlphaLISA Ultra pS6K1 assay. It counts as cell-based. The settings on record: Homo sapiens, 1.5 h; MCF7 cells, 90 min. The procedure: Example 55: AlphaLISA Ultra pS6K1 Assay
Assay Protocol: • 1. Seed MCF-7 cells in Corning 3701 plate and incubate for 20˜24 hour. 12,000˜16,000 cells will be seeded in 36 μL medium per well. • 2. Change the culture medium with fresh medium and incubate for another 2 hours. • 3. Add 12 μL (4×) compounds into the cell plate by HAMILTON. Final DMSO concentration is 0.5%. Incubate for 90 minutes. • 4. Aspirate 38 μL by HAMILTON, 10 μL rest per well. • 5. Add 10 μL 2× lysis buffer using HAMILTON; total volume in wells is 20 μL. Allow cells to shake for 30 min. Cover plate by plastic foil and store plate at −80° C. up to analysis. • 6. Thaw cell lysate at RT and transfer 10 μL lysate to assay plate (Optiplate-384). • 7. Add 5 μL acceptor beads into assay plate and incubation for 2 hours • 8. Add 5 μL donor beads and incubation for 2 hours • 9. Count the plate by EnSpire Multimode Plate Reader

The compound `CO[C@@H]1C[C@H](C[C@@H](C)[C@@H]2CC(=O)[C@H](C)/C=C(\C)[C@@H](O)[C@@H](OC)C(=O)[C@H](C)C[C@H](C)/C=C/C=C/C=C(\C)[C@@H](OCCOC3COC3)C[C@@H]3CC[C@@H](C)[C@@](O)(O3)C(=O)C(=O)N3CCCC[C@H]3C(=O)O2)CC[C@H]1O` [I-72, (1R,9S,12S,15R,16E,18R,19R,21R,23S,24E,26E,28E,30S,32S,35R)-1,18-dihydroxy-12-[(1R)-2-[(1S,3R,4R)-4-hydroxy-3-methoxy-cyclohexyl]-1-methyl-ethyl]-19-methoxy-15,17,21,23,29,35-hexamethyl-30-[2-(oxetan-3-yloxy)ethoxy]-11,36-dioxa-4-azatricyclo[30.3.1.0^4,9]hexatriaconta-16,24,26,28-tetraene-2,3,10,14,20-pentone] gave a 50% inhibitory concentration (IC50) below 1 nM.
The result for `COCCO[C@@H]1CC[C@@H](C[C@@H](C)[C@@H]2CC(=O)[C@H](C)/C=C(\C)[C@@H](O)[C@@H](OC)C(=O)[C@H](C)C[C@H](C)/C=C/C=C/C=C(\C)C(OCc3cnccn3)C[C@@H]3CC[C@@H](C)[C@@](O)(O3)C(=O)C(=O)N3CCCC[C@H]3C(=O)O2)C[C@H]1OC` (stereo partly drawn) [I-68, (1R,9S,12S,15R,16E,18R,19R,21R,23S,24E,26E,28E,32S,35R)-1,18-dihydroxy-19-methoxy-12-[(1R)-2-[(1S,3R,4R)-3-methoxy-4-(2-methoxyethoxy)cyclohexyl]-1-methyl-ethyl]-15,17,21,23,29,35-hexamethyl-30-(pyrazin-2-ylmethoxy)-11,36-dioxa-4-azatricyclo[30.3.1.0^4,9]hexatriaconta-16,24,26,28-tetraene-2,3,10,14,20-pentone] reads below 1 nM; that for `CO[C@@H]1C[C@H](C[C@@H](C)[C@@H]2CC(=O)[C@H](C)/C=C(\C)[C@@H](O)[C@@H](OC)C(=O)[C@H](C)C[C@H](C)/C=C/C=C/C=C(\C)[C@H](OCCOC3COC3)C[C@@H]3CC[C@@H](C)[C@@](O)(O3)C(=O)C(=O)N3CCCC[C@H]3C(=O)O2)CC[C@H]1O` [I-71, (1R,9S,12S,15R,16E,18R,19R,21R,23S,24E,26E,28E,30R,32S,35R)-1,18-dihydroxy-12-[(1R)-2-[(1S,3R,4R)-4-hydroxy-3-methoxy-cyclohexyl]-1-methyl-ethyl]-19-methoxy-15,17,21,23,29,35-hexamethyl-30-[2-(oxetan-3-yloxy)ethoxy]-11,36-dioxa-4-azatricyclo[30.3.1.0^4,9]hexatriaconta-16,24,26,28-tetraene-2,3,10,14,20-pentone], 1 to 10 nM; that for `CO[C@@H]1/C(C)=C/[C@@H](C)C(=O)C[C@@H]([C@H](C)C[C@@H]2CC[C@@H](OP(C)(C)=O)[C@H](OC)C2)OC(=O)[C@@H]2CCCCN2C(=O)C(=O)[C@]2(O)O[C@@H](CC[C@H]2C)CC(OCCOCCOC2COC2)/C(C)=C/C=C/C=C/[C@@H](C)C[C@@H](C)C(=O)[C@@H]1OC` (stereo partly drawn) [I-73, (1R,9S,12S,15R,16E,18R,19R,21R,23S,24E,26E,28E,32S,35R)-12-[(1R)-2-[(1S,3R,4R)-4-dimethylphosphoryloxy-3-methoxy-cyclohexyl]-1-methyl-ethyl]-1-hydroxy-18,19-dimethoxy-15,17,21,23,29,35-hexamethyl-30-[2-[2-(oxetan-3-yloxy)ethoxy]ethoxy]-11,36-dioxa-4-azatricyclo[30.3.1.04,9]hexatriaconta-16,24,26,28-tetraene-2,3,10,14,20-pentone], 10 to 100 nM.
In the case of `COCCO[C@@H]1CC[C@@H](C[C@@H](C)[C@@H]2CC(=O)[C@H](C)/C=C(\C)[C@@H](O)[C@@H](OC)C(=O)[C@H](C)C[C@H](C)/C=C/C=C/C=C(\C)[C@H](OC[C@H]3COCCO3)C[C@@H]3CC[C@@H](C)[C@@](O)(O3)C(=O)C(=O)N3CCCC[C@H]3C(=O)O2)C[C@H]1OC` [I-63, (1R,9S,12S,15R,16E,18R,19R,21R,23S,24E,26E,28E,30R,32S,35R)-30-[[(2R)-1,4-dioxan-2-yl]methoxy]-1,18-dihydroxy-19-methoxy-12-[(1R)-2-[(1S,3R,4R)-3-methoxy-4-(2-methoxyethoxy)cyclohexyl]-1-methyl-ethyl]-15,17,21,23,29,35-hexamethyl-11,36-dioxa-4-azatricyclo[30.3.1.0^4,9]hexatriaconta-16,24,26,28-tetraene-2,3,10,14,20-pentone] it was 1 to 10 nM; in that of `CO[C@@H]1C[C@H](C[C@@H](C)[C@@H]2CC(=O)[C@H](C)/C=C(\C)[C@@H](O)[C@@H](OC)C(=O)[C@H](C)C[C@H](C)/C=C/C=C/C=C(\C)C(OCc3cnccn3)C[C@@H]3CC[C@@H](C)[C@@](O)(O3)C(=O)C(=O)N3CCCC[C@H]3C(=O)O2)CC[C@H]1OCCO` (stereo partly drawn) [I-67, (1R,9S,12S,15R,16E,18R,19R,21R,23S,24E,26E,28E,32S,35R)-1,18-dihydroxy-12-[(1R)-2-[(1S,3R,4R)-4-(2-hydroxyethoxy)-3-methoxy-cyclohexyl]-1-methyl-ethyl]-19-methoxy-15,17,21,23,29,35-hexamethyl-30-(pyrazin-2-ylmethoxy)-11,36-dioxa-4-azatricyclo[30.3.1.0^4,9]hexatriaconta-16,24,26,28-tetraene-2,3,10,14,20-pentone], below 1 nM.
The result for `COCCO[C@@H]1CC[C@@H](C[C@@H](C)[C@@H]2CC(=O)[C@H](C)/C=C(\C)[C@@H](O)[C@@H](OC)C(=O)[C@H](C)C[C@H](C)/C=C/C=C/C=C(\C)[C@H](OC[C@@H]3COCCO3)C[C@@H]3CC[C@@H](C)[C@@](O)(O3)C(=O)C(=O)N3CCCC[C@H]3C(=O)O2)C[C@H]1OC` [I-65, (1R,9S,12S,15R,16E,18R,19R,21R,23S,24E,26E,28E,30R,32S,35R)-30-[[(2S)-1,4-dioxan-2-yl]methoxy]-1,18-dihydroxy-19-methoxy-12-[(1R)-2-[(1S,3R,4R)-3-methoxy-4-(2-methoxyethoxy)cyclohexyl]-1-methyl-ethyl]-15,17,21,23,29,35-hexamethyl-11,36-dioxa-4-azatricyclo[30.3.1.0^4,9]hexatriaconta-16,24,26,28-tetraene-2,3,10,14,20-pentone] reads 1 to 10 nM.

Source of the values: patent US20220267352A1, “RAPAMYCIN ANALOGS AND USES THEREOF” (Anakuria Therapeutics, Inc., priority 2021, published 2022).
